Data taken from US20120258980A1, “Antibacterial Agent for Drug-Resistant Bacteria, Method for Screening for Same, and Use of Same” (priority 2009, published 2012).
Values after ≈ are worked out from the molar mass of the structure shown. Read-outs that look alike come from different tables or passages of the source.

Assays:
[1] = system: MRSA, CA-MRSA and MSSA of Staphylococcus aureus; assay: MIC measurement, Test Example 4 (MRSA, CA-MRSA and MSSA strains); format: cell-based; details: Staphylococcus aureus
In short: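 S. aureus strains (FDA209P control) grown overnight in TSB at 37° C, resuspended in CAMHB, adjusted to A578 0.3 and diluted 500-fold. Equal volume added to CAMHB with serial compound concentrations, incubated statically overnight at 37° C. MIC read visually as lowest concentration without turbidity.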

[2] = system: methicillin-susceptible S. aureus (MSSA), MRSA and mutants thereof; assay: MIC measurement, Test Example 3 (MSSA, MRSA and sequential gyrA/grlA quinolone-resistant mutants); format: cell-based, Staphylococcus aureus; details: Staphylococcus aureus
In short: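 Clinical isolates and stepwise gyrA/grlA quinolone-resistant mutants grown overnight at 37° C in TSB, adjusted to A578 0.3 in CAMHB, diluted 500-fold and mixed 1:1 with drug dilutions in CAMHB.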

[3] = system: Enterococcus faecalis; assay: MIC measurement, Test Example 6 (enterococcus); format: cell-based; details: Enterococcus faecalis, read-out: MIC
In short: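 E. faecalis strains, including vancomycin-resistant NCTC12201 and NCTC12203, pre-grown overnight in TSB at 37° C, set to A578 0.3 in CAMHB, then diluted 500-fold.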

[4] = system: VISA clinical isolates of MRSA (VI-MRSA) and of MSSA (VI-MSSA); assay: microbe, parasite or virus in culture; format: cell-based, Staphylococcus aureus
In short: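 Strains were grown overnight at 37° C in TSB, adjusted in CAMHB to 0.3 absorbance at 578 nm and diluted 500-fold before equal-volume addition to compound dilutions.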

Compound: C[C@@H]1CN(c2c(F)c(N)c3c(=O)c(C(=O)O)cn(C4CC4)c3c2F)C[C@H](C)N1 [SPFX, sparfloxacin]
- MIC ([1]; ATCC 29213 / MRSA / MSSA, ATCC 29213, MSSA): ≤ 0.063 µg/mL
- MIC ([1]; COL, MRSA): 0.25 µg/mL (≈ 0.637 µM)
- MIC ([1]; FDA209P / MRSA / MSSA, FDA209P, MSSA): ≤ 0.063 µg/mL
- MIC ([1]; ISA12-1, MRSA): 0.125 µg/mL (≈ 0.319 µM)
- MIC ([1]; ISA12-2, MRSA): 0.125 µg/mL (≈ 0.319 µM)
- MIC ([1]; ISA35-1, MRSA): 0.125 µg/mL (≈ 0.319 µM)
- MIC ([1]; ISA37-1, MSSA): 0.125 µg/mL (≈ 0.319 µM)
- MIC ([1]; ISA49-1, MSSA): ≤ 0.063 µg/mL
- MIC ([1]; ISA51-1, MSSA): 0.125 µg/mL (≈ 0.319 µM)
- MIC ([1]; ISA56-3, MRSA): 0.125 µg/mL (≈ 0.319 µM)
- MIC ([1]; ISA58-1, MRSA): 0.5 µg/mL (≈ 1.27 µM)
- MIC ([1]; ISA62-1, MRSA): ≤ 0.063 µg/mL
- MIC ([1]; ISA73-1, MSSA): ≤ 0.063 µg/mL
- MIC ([1]; KBSA32, MRSA): ≤ 0.063 µg/mL
- MIC ([1]; KBSA34, MRSA): 0.125 µg/mL (≈ 0.319 µM)
- MIC ([1]; KBSA72, MRSA): 128 µg/mL (≈ 326 µM)
- MIC ([1]; KBSA96, MRSA): 16 µg/mL (≈ 40.8 µM)
- MIC ([1]; KBSA171, MRSA): 16 µg/mL (≈ 40.8 µM)
- MIC ([1]; KSA24, MRSA): 16 µg/mL (≈ 40.8 µM)
- MIC ([1]; KSA31, MRSA): 8 µg/mL (≈ 20.4 µM)
- MIC ([1]; KSA36, MRSA): 128 µg/mL (≈ 326 µM)
- MIC ([1]; MRSA / MSSA / NCTC 8325, NCTC 8325, MSSA): 0.125 µg/mL (≈ 0.319 µM)
- MIC ([1]; MRSA / MSSA / USA300, USA300 FPR3757, CA-MRSA): 8 µg/mL (≈ 20.4 µM)
- MIC ([1]; MW2, CA-MRSA): ≤ 0.063 µg/mL
- MIC ([1]; N315, MRSA): ≤ 0.063 µg/mL
- MIC ([2]; FDA209P / MRSA / MSSA, FDA209P (MSSA), control, read-out: MIC): ≤ 0.063 µg/mL
- MIC ([2]; MR5867 (MRSA), clinical isolate parent strain, no mutation): ≤ 0.063 µg/mL
- MIC ([2]; MR5867-1, first-step quinolone-resistant mutant, grlA E84K): ≤ 0.063 µg/mL
- MIC ([2]; MS5935 (MSSA), clinical isolate parent strain, no mutation, read-out: MIC): ≤ 0.063 µg/mL
- MIC ([2]; MS5935-1, first-step quinolone-resistant mutant, grlA S80F): ≤ 0.063 µg/mL
- MIC ([2]; MS5935-3, third-step mutant, further grlA E84K): 32 µg/mL (≈ 81.5 µM)
- MIC ([2]; MS5952 (MSSA), clinical isolate parent strain, no mutation, read-out: MIC): ≤ 0.063 µg/mL
- MIC ([3]; E. faecalis 36-15672, quinolone-susceptible enterococci): 1 µg/mL (≈ 2.55 µM)
- MIC ([3]; E. faecalis 36-15673, quinolone-susceptible enterococci): 1 µg/mL (≈ 2.55 µM)
- MIC ([3]; E. faecalis 36-15678, quinolone-susceptible enterococci): 0.5 µg/mL (≈ 1.27 µM)
- MIC ([3]; E. faecalis 36-15686, quinolone-resistant enterococci): 128 µg/mL (≈ 326 µM)
- MIC ([3]; E. faecalis 36-15688, quinolone-susceptible enterococci): 0.5 µg/mL (≈ 1.27 µM)
- MIC ([3]; E. faecalis 36-15694, quinolone-resistant enterococci): 64 µg/mL (≈ 163 µM)
- MIC ([3]; E. faecalis 36-15696, quinolone-susceptible enterococci): 0.5 µg/mL (≈ 1.27 µM)
- MIC ([3]; E. faecalis 36-15703, quinolone-resistant enterococci): 32 µg/mL (≈ 81.5 µM)
- MIC ([3]; E. faecalis 36-15716, quinolone-resistant enterococci): 64 µg/mL (≈ 163 µM)
- MIC ([3]; E. faecalis 36-15718, quinolone-susceptible enterococci): 0.5 µg/mL (≈ 1.27 µM)
- MIC ([3]; E. faecalis 36-15720, quinolone-susceptible enterococci): 1 µg/mL (≈ 2.55 µM)
- MIC ([3]; E. faecalis 36-15722, quinolone-resistant enterococci): 64 µg/mL (≈ 163 µM)
- MIC ([3]; E. faecalis 36-15726, quinolone-resistant enterococci): 64 µg/mL (≈ 163 µM)
- MIC ([3]; E. faecalis 36-15730, quinolone-susceptible enterococci): 1 µg/mL (≈ 2.55 µM)
- MIC ([3]; E. faecalis 36-15736, quinolone-susceptible enterococci): 0.5 µg/mL (≈ 1.27 µM)
- MIC ([3]; E. faecalis 36-15741, quinolone-susceptible enterococci): 1 µg/mL (≈ 2.55 µM)
- MIC ([3]; NCTC 12201 / VRE, E. faecalis NCTC12201, vancomycin-resistant (VRE), quinolone-susceptible enterococci): 0.5 µg/mL (≈ 1.27 µM)
- MIC ([3]; NCTC 12203 / VRE, E. faecalis NCTC12203, vancomycin-resistant (VRE), quinolone-susceptible enterococci): 0.5 µg/mL (≈ 1.27 µM)
- MIC ([4]; Staphylococcus aureus, 99/3700-W, VI-MRSA, The United Kingdom): 16 µg/mL (≈ 40.8 µM)
- MIC ([4]; Staphylococcus aureus, 99/3759-V, VI-MRSA, The United Kingdom): 16 µg/mL (≈ 40.8 µM)
- MIC ([4]; Staphylococcus aureus, 28160, VI-MRSA, South African Republic): 32 µg/mL (≈ 81.5 µM)
- MIC ([4]; Staphylococcus aureus, 98141, VI-MRSA, France): 16 µg/mL (≈ 40.8 µM)
- MIC ([4]; Staphylococcus aureus, A7 (JCSC4842), VI-MRSA, Taiwan): 8 µg/mL (≈ 20.4 µM)
- MIC ([4]; Staphylococcus aureus, AMC11094, VI-MRSA, Korea): 32 µg/mL (≈ 81.5 µM)
- MIC ([4]; Staphylococcus aureus, B7 (JCSC4852), VI-MRSA, Taiwan): 8 µg/mL (≈ 20.4 µM)
- MIC ([4]; Staphylococcus aureus, BR1, VI-MRSA, Brazil): 32 µg/mL (≈ 81.5 µM)
- MIC ([4]; Staphylococcus aureus, BR2, VI-MRSA, Brazil): 32 µg/mL (≈ 81.5 µM)
- MIC ([4]; Staphylococcus aureus, BR3, VI-MRSA, Brazil): 32 µg/mL (≈ 81.5 µM)
- MIC ([4]; Staphylococcus aureus, BR4, VI-MRSA, Brazil): 16 µg/mL (≈ 40.8 µM)
- MIC ([4]; Staphylococcus aureus, BR5, VI-MRSA, Brazil): 16 µg/mL (≈ 40.8 µM)
- MIC ([4]; Staphylococcus aureus, HIP06297, VI-MRSA, America): 8 µg/mL (≈ 20.4 µM)
- MIC ([4]; Staphylococcus aureus, HIP06854, VI-MRSA, America): 16 µg/mL (≈ 40.8 µM)
- MIC ([4]; Staphylococcus aureus, HIP07920, VI-MRSA, America): 16 µg/mL (≈ 40.8 µM)
- MIC ([4]; Staphylococcus aureus, HIP07930, VI-MRSA, America): 16 µg/mL (≈ 40.8 µM)
- MIC ([4]; Staphylococcus aureus, HIP08926, VI-MRSA, America): 16 µg/mL (≈ 40.8 µM)
- MIC ([4]; Staphylococcus aureus, HIP09143, VI-MRSA, America): 16 µg/mL (≈ 40.8 µM)
- MIC ([4]; Staphylococcus aureus, HIP09313, VI-MRSA, America): 8 µg/mL (≈ 20.4 µM)
- MIC ([4]; Staphylococcus aureus, HIP09433, VI-MRSA, America): 64 µg/mL (≈ 163 µM)
- MIC ([4]; Staphylococcus aureus, HIP09662, VI-MRSA, America): 16 µg/mL (≈ 40.8 µM)
- MIC ([4]; Staphylococcus aureus, HIP09735, VI-MRSA, America): 16 µg/mL (≈ 40.8 µM)
- MIC ([4]; Staphylococcus aureus, HIP09737, VI-MSSA, America): 16 µg/mL (≈ 40.8 µM)
- MIC ([4]; Staphylococcus aureus, HIP09740, VI-MRSA, America): 16 µg/mL (≈ 40.8 µM)
- MIC ([4]; Staphylococcus aureus, HIP10267, VI-MRSA, America): 16 µg/mL (≈ 40.8 µM)
- MIC ([4]; Staphylococcus aureus, HIP10540, VI-MRSA, America): 16 µg/mL (≈ 40.8 µM)
- MIC ([4]; Staphylococcus aureus, HIP12864, VI-MRSA, America): 32 µg/mL (≈ 81.5 µM)
- MIC ([4]; Staphylococcus aureus, HIP13036, VI-MRSA, America): 4 µg/mL (≈ 10.2 µM)
- MIC ([4]; Staphylococcus aureus, HIP13057, VI-MRSA, America): 8 µg/mL (≈ 20.4 µM)
- MIC ([4]; Staphylococcus aureus, IL (HIP7737), VI-MRSA, America): 32 µg/mL (≈ 81.5 µM)
- MIC ([4]; Staphylococcus aureus, JCSC7193, VI-MRSA, Thailand): 16 µg/mL (≈ 40.8 µM)
- MIC ([4]; Staphylococcus aureus, JCSC7195, VI-MRSA, Thailand): 32 µg/mL (≈ 81.5 µM)
- MIC ([4]; Staphylococcus aureus, JCSC7203, VI-MRSA, Thailand): 16 µg/mL (≈ 40.8 µM)
- MIC ([4]; Staphylococcus aureus, LIM2, VI-MRSA, France): 16 µg/mL (≈ 40.8 µM)
- MIC ([4]; Staphylococcus aureus, LY-1999-01, VI-MSSA, Oman): 2 µg/mL (≈ 5.1 µM)
- MIC ([4]; Staphylococcus aureus, LY-1999-03, VI-MRSA, Oman): 8 µg/mL (≈ 20.4 µM)
- MIC ([4]; Staphylococcus aureus, MI (HIP5827), VI-MRSA, America): 32 µg/mL (≈ 81.5 µM)
- MIC ([4]; Staphylococcus aureus, MRSA / MSSA / NRS 76 / VISA, NRS76, VI-MSSA, America): 32 µg/mL (≈ 81.5 µM)
- MIC ([4]; Staphylococcus aureus, MRSA / MSSA / NRS 79 / VISA, NRS79, VI-MRSA, America): 16 µg/mL (≈ 40.8 µM)
- MIC ([4]; Staphylococcus aureus, MRSA / MSSA / NRS 118 / VISA, NRS118, VI-MRSA, America): 32 µg/mL (≈ 81.5 µM)
- MIC ([4]; Staphylococcus aureus, MRSA / MSSA / NRS 126 / VISA, NRS126, VI-MRSA, America): 8 µg/mL (≈ 20.4 µM)
- MIC ([4]; Staphylococcus aureus, Mu3, VI-MRSA, Japan): 16 µg/mL (≈ 40.8 µM)
- MIC ([4]; Staphylococcus aureus, Mu50, VI-MRSA, Japan): 16 µg/mL (≈ 40.8 µM)
- MIC ([4]; Staphylococcus aureus, NJ (HIP5836), VI-MRSA, America): 32 µg/mL (≈ 81.5 µM)
- MIC ([4]; Staphylococcus aureus, P1V44, VI-MSSA, Belgium): 4 µg/mL (≈ 10.2 µM)
- MIC ([4]; Staphylococcus aureus, PC, VI-MRSA, America): 16 µg/mL (≈ 40.8 µM)
- MIC ([4]; Staphylococcus aureus, SA MER-S6, VI-MSSA, France): 0.25 µg/mL (≈ 0.637 µM)
- MIC ([4]; Staphylococcus aureus, SA MER-S12, VI-MSSA, France): 0.25 µg/mL (≈ 0.637 µM)
- MIC ([4]; Staphylococcus aureus, SA MER-S20, VI-MSSA, France): 0.125 µg/mL (≈ 0.319 µM)
